Experimental data taken from patent US6576784B1, “Antiviral agents” (Yeda Research and Development Co. Ltd., priority 1993, dated 2003).

Key:
[1] = Quantum yield of singlet oxygen formation on irradiation in liposomes; type: physicochemical; conditions: for singlet oxygen formed on irradiation in liposomes (in words): irradiation with visible light, bound to liposomes; for Quantum yields of singlet oxygen (φΔ) formed on irradiation of hypericin analogs in liposomes: soya liposomes, DPBF, light of 420 nm
[2] = test system: non-enveloped viruses such as polio and rhino viruses; conditions: Tang et al., Antiviral Res. 13:313 (1990); cited from earlier work
[3] = G. Lavie et al, J.N.Y. Acad. Sci. 616:556, 1990; cited from earlier work
[4] = test system: Murine Friend Virus; test: Inhibition of Friend virus splenomegaly in BALB/c mice; type: in vivo; conditions: single intravenous dose within 1 hour of infection, FIG. 2
Source text: Antiretroviral Activity of Hypericin Analogs Against Murine Friend Virus in BALB/c Mice
Mice infected with Friend virus (FV) develop a virus induced erythroleukemia whose early manifestation is a 4-8 time enlargement of the spleen size (splenomegaly) within 10 days after infection with the virus. Inhibition of splenomegaly can be used to quantitate the antiretroviral activity of various compounds in vivo. In this experiment, mice, in groups of 3, were infected with Friend virus and hypericin analogs (0.5 ml of solution in PBS) were then administered intravenously within 1 hour of the infection in a single dose of 1, 10, 50 and 150 μg per mouse.

[5] = test system: Murine Radiation Leukemia Virus (Rad LV); test: Direct inactivation of murine radiation leukemia virus measured by inhibition of virus particle derived reverse transcriptase activity; type: biochemical; conditions: 0.01 μg/ml; virus incubated with compound on ice 30 min; FIG. 1
Procedure: Determination of Antiretroviral Activity of Hypericin Analogs by Monitoring the Direct Inactivation of Murine Radiation Leukemia Virus (Rad LV) Measured by the Inhibition of Virus Particle Derived Reverse Transcriptase Activity
Virus particles released into the growth medium of the AQR lymphoblastoid cell line which is infected with and producing RadLV, were exposed to hypericin and hypericin analogs. The virus and the substrate were incubated on ice for a period of 30 min., after which time the virus was precipitated by ultracentrifugation at 40,000 rpm for 1 hour in a Beckman ultracentrifuge, and analyzed for reverse transcriptase according to Stephenson et al., Virology 48:749 (1972). The results shown in FIG. 1 are expressed as counts per minute of tritiated-thymidine incorporation.

For Cc1cc(O)c2c(=O)c3c(O)cc(O)c4c5c(O)cc(O)c6c(=O)c7c(O)cc(C)c8c1c2c(c34)c(c78)c65 [hypericin, Hypericin, reference compound], the “singlet oxygen formed on irradiation in liposomes (in words)” value [1] is given as “comparatively high” and the “activity against non-enveloped viruses (in words)” value [2] is given as “not active”.

In the case of “octahydroxy hypericin [R1, R2 = OH, reference compound]”, the “singlet oxygen formed on irradiation in liposomes (in words)” value [1] is given as “did not produce detectable yields of singlet oxygen”, the “Quantum yields of singlet oxygen (φΔ) formed on irradiation of hypericin analogs in liposomes” value [1] is given as <0.01 and the “antiviral activity (in words)” value [3] is given as “very weak antiviral activity”.

For “2-Methoxyethyl Ester Analog of Hypericin [Example 4]”, the “Quantum yields of singlet oxygen (φΔ) formed on irradiation of hypericin analogs in liposomes” value [1] was 0.35.

With “2-(2-Methoxyethoxy)ethyl Ester Analog of Hypericin [Example 5]” the “Quantum yields of singlet oxygen (φΔ) formed on irradiation of hypericin analogs in liposomes” value [1] was 0.1.

For “Methyl Ester Analog of Hypericin [Example 1]”, the “Quantum yields of singlet oxygen (φΔ) formed on irradiation of hypericin analogs in liposomes” value [1] was 0.38, the inhibition of splenomegaly ([4]; 10 μg per mouse) was 65% and the “antiviral activity (inhibition of virus particle derived reverse transcriptase activity, tritiated-thymidine incorporation)” value [5] was “antiviral activity”.

With “n-propyl Ester Analog of Hypericin [Example 2]” the inhibition of splenomegaly ([4]; 10 μg per mouse) was 47%.

With “n-butyl Ester Analog of Hypericin [Example 3]” the inhibition of splenomegaly ([4]; 150 μg per mouse) was 70% and the “antiviral activity (inhibition of virus particle derived reverse transcriptase activity, tritiated-thymidine incorporation)” value [5] was “antiviral activity”.
